# From the supplement of paper PMC11451515
# System: SEM cells
# Assay: cell viability relative to DMSO control; higher = less cytotoxic
# Details: 48 h
# In short: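 Before seeding, each leukemia line was adapted for at least four passages in each medium. NOMO1 or SEM cells (500 cells/well) and P12-Ichikawa cells (1000 cells/well) went into 1536-well plates at 5 μl, then received library compounds in DMSO by pin dosing across 11 threefold concentrations, 47 μM to 0.79 nM. Readout was CellTiter-Glo One luminescence after 48 h at 37°C, and viability is given as a per-plate percentage of DMSO wells, with cell-free wells as background.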
# [1] = HPLM + 10% dialyzed FBS, 0.000781 µM
# [2] = HPLM + 10% dialyzed FBS, 0.00234 µM
# [3] = HPLM + 10% dialyzed FBS, 0.00702 µM
# [4] = HPLM + 10% dialyzed FBS, 0.0211 µM
# [5] = HPLM + 10% dialyzed FBS, 0.0632 µM
# [6] = HPLM + 10% dialyzed FBS, 0.19 µM
# [7] = HPLM + 10% dialyzed FBS, 0.569 µM
# [8] = HPLM + 10% dialyzed FBS, 1.71 µM
# [9] = HPLM + 10% dialyzed FBS, 5.12 µM
# [10] = HPLM + 10% dialyzed FBS, 15.4 µM
# [11] = HPLM + 10% dialyzed FBS, 46.1 µM
# [12] = RPMI 5 mM glucose + 10% FBS, 0.000781 µM
# [13] = RPMI 5 mM glucose + 10% FBS, 0.00234 µM
# [14] = RPMI 5 mM glucose + 10% FBS, 0.00702 µM
# [15] = RPMI 5 mM glucose + 10% FBS, 0.0211 µM
# [16] = RPMI 5 mM glucose + 10% FBS, 0.0632 µM
# [17] = RPMI 5 mM glucose + 10% FBS, 0.19 µM
# [18] = RPMI 5 mM glucose + 10% FBS, 0.569 µM
# [19] = RPMI 5 mM glucose + 10% FBS, 1.71 µM
# [20] = RPMI 5 mM glucose + 10% FBS, 5.12 µM
# [21] = RPMI 5 mM glucose + 10% FBS, 15.4 µM
# [22] = RPMI 5 mM glucose + 10% FBS, 46.1 µM
# [23] = RPMI 5 mM glucose + 10% dialyzed FBS, 0.000781 µM
# [24] = RPMI 5 mM glucose + 10% dialyzed FBS, 0.00234 µM
# [25] = RPMI 5 mM glucose + 10% dialyzed FBS, 0.00702 µM
# [26] = RPMI 5 mM glucose + 10% dialyzed FBS, 0.0211 µM
# [27] = RPMI 5 mM glucose + 10% dialyzed FBS, 0.0632 µM
# [28] = RPMI 5 mM glucose + 10% dialyzed FBS, 0.19 µM
# [29] = RPMI 5 mM glucose + 10% dialyzed FBS, 0.569 µM
# [30] = RPMI 5 mM glucose + 10% dialyzed FBS, 1.71 µM
# [31] = RPMI 5 mM glucose + 10% dialyzed FBS, 5.12 µM
# [32] = RPMI 5 mM glucose + 10% dialyzed FBS, 15.4 µM
# [33] = RPMI 5 mM glucose + 10% dialyzed FBS, 46.1 µM
SMILES,cell viability [1] [%],cell viability [2] [%],cell viability [3] [%],cell viability [4] [%],cell viability [5] [%],cell viability [6] [%],cell viability [7] [%],cell viability [8] [%],cell viability [9] [%],cell viability [10] [%],cell viability [11] [%],cell viability [12] [%],cell viability [13] [%],cell viability [14] [%],cell viability [15] [%],cell viability [16] [%],cell viability [17] [%],cell viability [18] [%],cell viability [19] [%],cell viability [20] [%],cell viability [21] [%],cell viability [22] [%],cell viability [23] [%],cell viability [24] [%],cell viability [25] [%],cell viability [26] [%],cell viability [27] [%],cell viability [28] [%],cell viability [29] [%],cell viability [30] [%],cell viability [31] [%],cell viability [32] [%],cell viability [33] [%]
CN1CCN(CCCN2c3ccccc3Sc3ccc(C(F)(F)F)cc32)CC1,74.1,85.4,88.1,103,97.3,101,106,105,107,102,106,83.1,91.4,90.7,93.9,94.4,100,101,99.4,98.6,105,101,90.6,94.2,89.9,94.4,102,102,92.7,104,107,112,86.8
COC1=CC=C(C=C1O)C/2=C/C(=O)C3=C(O2)C=C(O[C@@H]4O[C@H](CO[C@@H]5O[C@@H](C)[C@H](O)[C@@H](O)[C@H]5O)[C@@H](O)[C@H](O)[C@H]4O)C=C3O,95.1,103,106,114,124,108,122,118,102,129,113,115,108,107,111,122,113,100,106,85.9,105,103,102,103,111,102,123,111,112,114,93.8,101,99.2
CC(C)[C@H](N)C(=O)OCCOC[N]1C=NC2=C1\N=C(N)/NC2=O,92.4,101,119,127,121,117,119,116,103,115,107,80.4,85.4,104,109,116,95.3,102,90.5,92.7,98.7,78,107,112,126,134,122,123,126,166,112,133,99
COc1cc(N2CCC(N(C)C)CC2)ccc1Nc1ncc(Cl)c(Nc2ccccc2P(C)(C)=O)n1,117,112,116,114,110,82.3,51,28.3,17.7,11.9,5.99,114,105,114,109,128,95.4,57.8,18.2,8.88,6.45,4.89,,,,,,,,,,,
O.O.CCN1CCN(C(=O)N[C@H](C(=O)N[C@H]2[C@@H]3SC\C(=C(/N3C2=O)C(O)=O)CSC4=NN=N[N]4C)C5=CC=C(O)C=C5)C(=O)C1=O,81,81.3,90.4,20.6,107,95.4,104,101,103,98.6,105,99.1,75.9,99.4,15.1,95.3,104,107,94.5,90.9,117,98.8,88.1,80.5,97.6,17.3,91.6,106,101,99.7,104,93.4,103
CN(C)C(=O)C(CCN1CCC(O)(c2ccc(Cl)cc2)CC1)(c1ccccc1)c1ccccc1,68.1,109,117,130,127,121,122,117,108,86.6,23.5,57.8,108,141,127,114,127,140,117,110,75.5,10.3,,,,,,,,,,,
Cc1noc(-c2ccc(CSCCC(=O)O)cc2)c1NC(=O)OC(C)c1ccccc1Cl (stereo not drawn),95.3,95.1,99.2,89.3,88.4,97,99.7,89.3,97.1,98.7,95.6,99.9,98.8,82.5,94.5,83.9,100,96.2,70.3,101,89.7,81.3,90,108,104,115,97,115,101,69.3,117,114,88.3
NC/1=N/C(=O)N(/C=N1)[C@@H]2O[C@H](CO)[C@@H](O)[C@H]2O,85.7,107,117,106,76.2,100,104,105,75.4,24.5,3.65,95.7,107,99.5,102,70.9,110,90.4,94.8,75.1,35.3,7.85,90.8,87.8,82,90.1,69.7,93.5,82.3,74.6,38.9,6.43,3.29
C[C@@]1(C(=O)Nc2ccc(F)nc2)CCCN1c1nc(Nc2cc(C3CC3)[nH]n2)c2cccn2n1,90.8,98.6,106,97.2,101,98.8,81.9,103,30.6,21.4,9.04,56.6,68.8,64.6,70.6,72.6,77.2,66.1,60.1,10.9,8.82,2.55,95.4,89.5,102,107,112,92.3,104,96.5,18.8,16.4,6.22
CC(O)C1C2C(C)\C(=C(/N2C1=O)C(O)=O)SC3CNC(C3)C(=O)N(C)C (stereo not drawn),79.6,64.9,84,88.8,90.4,81.4,86.7,82.3,90.7,77.9,78.5,80.9,77.2,85.2,90.7,84.1,75.7,92.2,85.4,90.7,83.9,90.6,86,68.8,98.7,92.7,104,107,90.8,90.2,104,88.3,73.9
Nc1nc(Cl)nc2c1ncn2[C@@H]1O[C@H](CO)[C@@H](O)[C@@H]1F,14.5,17,16.4,15.7,18,16.5,15.1,16.1,10.2,8.98,4.93,15.3,20,18.8,16.8,14.3,10.8,9.77,9.03,5.46,3.69,2.88,12.6,14.1,15.2,16.5,14,11.9,10.8,10.3,8.13,8.34,4.01
CC(C)C[C@H](NC(=O)[C@@H](O)[C@H](N)Cc1ccccc1)C(=O)O,86,122,121,131,136,119,114,128,120,114,10.7,59.2,122,127,123,133,115,118,121,109,117,8.04,62.3,119,136,135,129,123,127,132,131,116,13.2
CNC(=O)[C@H](CC/1=C/N=C\2/C=C\C\C=C12)NC(=O)[C@H](CC(C)C)CC(=O)NO,104,103,108,111,120,104,112,118,120,105,101,111,134,122,133,117,118,116,110,132,120,114,95,99.2,104,100,113,88.9,99.7,102,94.4,102,90.1
N#C[C@H](O[C@@H]1O[C@H](CO[C@@H]2O[C@H](CO)[C@@H](O)[C@H](O)[C@H]2O)[C@@H](O)[C@H](O)[C@H]1O)c1ccccc1,114,103,113,127,115,118,108,102,110,114,41.8,106,98.3,120,112,99.8,102,112,94.8,94.5,95.7,20.6,97.4,104,97.4,122,99,99.7,97.5,101,91.4,92.2,15.3
N=C1N[C@H]2[C@H](CS[C@H]2CCCCC(=O)O)N1,80.4,109,91.8,97.2,111,108,25.3,112,117,112,109,87.6,115,108,106,107,107,15.4,115,110,115,121,108,105,111,118,117,101,18.4,121,122,124,128
